Read-outs that look alike come from different tables or passages of the source. Marks after values point to notes of the source that are not given here.

This is an account of results in patent US8252832B2, “Kinesin inhibitors as cancer therapeutics” (Novartis AG, priority 2007, dated 2012).

Data set [1] addresses T1, motor domain of human KSP (Eg 5, KNSL1) (Homo sapiens, UniProt P52732).
T1 construct: KSP motor protein (i.e., the KSP motor domain); made in house
T1 sequence (P52732 18-359 limits assumed): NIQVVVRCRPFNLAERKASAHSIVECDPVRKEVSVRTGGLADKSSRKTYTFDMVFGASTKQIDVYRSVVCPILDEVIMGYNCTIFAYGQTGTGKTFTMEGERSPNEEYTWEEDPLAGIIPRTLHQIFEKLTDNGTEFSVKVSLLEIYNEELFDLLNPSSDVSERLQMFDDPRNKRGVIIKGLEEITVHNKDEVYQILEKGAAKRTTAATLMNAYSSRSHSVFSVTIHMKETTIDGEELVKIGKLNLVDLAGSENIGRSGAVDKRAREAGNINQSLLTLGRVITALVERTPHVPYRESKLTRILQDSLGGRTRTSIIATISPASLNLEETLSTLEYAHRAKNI
The experiment in a line: Assay for determining KSP activity (microtubule/KSP ATPase, Biomol Green). The note with it: read-out: In vitro activity (IC-50 - nm). Format: biochemical. The procedure:
Purified microtubules obtained from bovine brain were purchased from Cytoskeleton Inc. (Denver, Colo., USA). The motor domain of human KSP (Eg 5, KNSL1) was cloned, expressed, and purified to greater than 95% homogeneity. Biomol Green™ was purchased from Affinity Research Products Ltd. (Matford Court, Exeter, Devon, United Kingdom). Microtubules and KSP motor protein (i.e., the KSP motor domain) were diluted in assay buffer (20 mM Tris-HCl (pH 7.5), 1 mM MgCl2, 10 mM DTT and 0.25 mg/mL BSA) to a final concentration of 35 μg/mL microtubules and 45 nM KSP. The microtubule/KSP mixture was then pre-incubated at 37° C. for 10 min to promote the binding of KSP to microtubules.
To each well of the testing plate (384-well plate) containing 1.25 μL of inhibitor or test compound in DMSO (or DMSO only, in the case of controls) were added 25 μL of ATP solution (ATP diluted to a concentration of 300 μM in assay buffer) and 25 μL of the above-described microtubule/KSP solution. The plates were incubated at RT for 1 hour. Following incubation, 65 μL of Biomol Green™ (a malachite green-based dye that detects the release of inorganic phosphate) was added to each well. The plates were incubated for an additional 5-10 minutes then the absorbance at 630 nm was determined using a Victor II plate reader. The amount of absorbance at 630 nm corresponded to the amount of KSP activity in the samples. The IC50 of each inhibitor or test compound was then determined based on the decrease in absorbance at 630 nm at each concentration, via nonlinear regression using either XLFit for Excel or Prism data analysis software by GraphPad Software Inc.

The test system of a further data set is HCT-15. As to the kind of experiment: CellTiter-Glo proliferation, 72 hours. The note with it: Homo sapiens; Colon, HCT-15, 72 hours. Format: cell-based. The source says: (§1) Cell lines used were as follows: HCT-116 (National Cancer Institute's DCTF Tumor Repository, catalog #NCI-502568, Rockville, Md.), HCT-15 (National Cancer Institute's DCTF Tumor Repository, catalog#NCI-502711, Rockville, Md. available from American Type Tissue Collection, catalog #CLL-225), KB-3-1 (available from DSMZ, Deutsche Sammlung von Mikroorganismen und Zellkulturen GmbH (German Collection of Microorganisms and Cell Cultures—catalog number ACC 158), KB-V1 (available from DSMZ—catalog number ACC 149), AGS (available from American Type Culture Collection, Manassas Va., catalog number CRL-1739™), N87 (available from American Type Culture Collection, Manassas Va., catalog number CRL-5822), Hel92.1.7 (available from American Type Culture Collection, Manassas Va., catalog number TIB 180), K562 (available from American Type Culture Collection, Manassas Va., catalog number CRL-243™), MV4; 11 (American Tissue Culture Collection, Manassas Va., catalog number CRL-9591) and U937 (available from American Type Culture Collection, Manassas Va., catalog number CRL-1593.2).
(§2) Cells were plated in 96-well plates at densities of about 500 cells per well of a 96-well plate and allowed to grow for 24 hours. The cells were then treated with various concentrations of compounds for 72 hours. Then, 100 μl of CellTiter-Glo® reagent was added (Promega Corporation). CellTiter-Glo® is used in a homogeneous method of determining the number of viable cells using the single CellTiter-Glo® reagent to detect ATP (U.S. Pat. Nos. 6,602,677 and 7,241,584) (see Promega product catalog #G7570). Following the addition of the CellTiter-Glo® reagent, the cells were incubated in the dark for 30 minutes. The amount of luminescence was determined for each well using a Wallac Trilux plate reader, which correlates with the number of cells per well. The number of viable cells in the wells that receive only DMSO (0.5%) served as an indication of 0% inhibition, while wells without cells served as 100% inhibition of cell growth. […] This broad activity is consistent with a compound that is a mitotic inhibitor.

A further data set has as its system KB3.1. The experiment in a line: CellTiter-Glo proliferation, 72 hours. Particulars: Homo sapiens, KB 3-1; Epidermoid, KB3.1, 72 hours. Format: cell-based.
Source text: as §1, §2
For orientation: ATP-based viability assays read luminescence as a measure of living cells.

The next data set relates to KB8.5. As to the kind of experiment: CellTiter-Glo proliferation, 72 hours. Format: cell-based. Particulars: Homo sapiens; Epidermoid, KB8.5, 72 hours.
A short description of data set [2]: In vivo pharmacokinetic parameters (clearance, half-life, AUC). Particulars: for clearance: read-out: In vivo Clearance rate.
The next data set deals with KB8.5 tumor xenograft. The experiment in a line: KB8.5 tumor xenograft model (P-gp expressing), tumor response. Format: in vivo, mouse. The note with it: for ΔT/ΔC, Day 11 (%): q4d × 3. The procedure:
Cells were cultured for fewer than 10 passages prior to use. […] All data were expressed as mean and SEM. Between-groups comparisons for final tumor measurements were performed using the one-way ANOVA pair-wise analysis. Significance was determined using Kruskal-Wallis one-way ANOVA on Ranks, followed by appropriate post-hoc test (Dunn's Method or Tukey Test) for multiple pair-wise comparisons. Statistical analysis was carried out using SigmaStat (Systat Software Inc., San Jose, Calif.).

For data set [3] the following is noted: for Survival (alive/total) / % Max. Δ body weight, (Day): q4d × 3. How it is done:
Experiments were performed using outbred athymic nu/nu mice (Charles River Laboratories) approximately 6-8 weeks old. Upon arrival, animals received a subcutaneous microchip implant (AVID, Folsom, La.) in the subscapular region for identification of individuals. Animals were allowed to acclimatize for 1 week before any experimental procedures began.
Compound IIa, compound IIc, compound IIa (shown below), and SB-715992 were formulated in a Captisol®-based formulation. Doses were administered intravenously (i.v.) and adjusted to each animal's body weight. Formulations were made once at the beginning of study and stored at room temperature. Clinical grade paclitaxel was purchased pre-mixed in a cremophor-based vehicle (Mayne Pharma, now Hospira, Lake Forest, Ill., catalog #NDC-6170334209) and diluted in sterile saline to provide a dose volume of 16 mL/kg for a 30 mg/kg dose administered intraperitoneally (i.p.)
For the efficacy studies, mice were enrolled with a mean tumor volume of approximately 300 mm^3. Tumor xenografts were measured in two dimensions (L and W) with digital calipers twice weekly from the start of dosing on Day 0. Tumor volume was calculated as (L×W^2)/2. Body weights were measured twice weekly and clinical observations were recorded daily. Tumor volume and body weights were captured and stored by StudyDirector software (StudyLog, South San Francisco, Calif.).

With `COCC(=O)N(CC[C@H](N)CF)[C@@H](c1nc(-c2cc(F)ccc2F)cn1Cc1ccccc1)C(C)(C)C` [Compound Ia], the IC50 in data set [1] was 600 pM. The 50% growth inhibitory concentration (GI50) (usually the concentration at which growth is held to half of that of the control) in the data set on HCT-15 stood at 300 pM; in the data set on KB3.1, 400 pM; in the data set on KB8.5, 400 pM. Also, the exposure (AUC) (commonly the area under the concentration-time curve, a measure of exposure) in data set [2] is 2670 ng·h/mL. Further, the half-life – broadly, the time in which the quantity being followed falls by half – in data set [2] stood at 1.95 h. Also, in data set [2], the clearance (commonly the rate of elimination divided by the concentration) amounted to 29 mL/min/kg. Moreover, the “efficacy in the KB8.5 tumor xenograft model” value with KB8.5 tumor xenograft (5 mg/kg, q4d×3) is listed as “not efficacious”. The “ΔT/ΔC, Day 11 (%)” value in the data set on KB8.5 tumor xenograft (Table 15 study, 1.25 mg/kg, i.v., not statistically different from vehicle) was 84%; with KB8.5 tumor xenograft (Table 15 study, 2.5 mg/kg, i.v., not statistically different from vehicle), 61%; in the data set with KB8.5 tumor xenograft (Table 15 study, 5 mg/kg, iv., not statistically different from vehicle) it was 66%. Further, the “Survival (alive/total)” value is on record as 10/10 in data set [3] (Table 15 study, 1.25 mg/kg, i.v.); 10/10 in data set [3] (Table 15 study, 2.5 mg/kg, i.v.); 10/10 in data set [3] (Table 15 study, 5 mg/kg, iv.). Also, the “% Max. Δ body weight, (Day)” value is reported as 1 (D11) % in data set [3] (Table 15 study, 1.25 mg/kg, i.v., D11); −0.4 (D4) % in data set [3] (Table 15 study, 2.5 mg/kg, i.v., D4); −2 (D4) % in data set [3] (Table 15 study, 5 mg/kg, iv., D4).
As to `CC(=O)N(CC[C@H](N)CF)[C@@H](c1nc(-c2cc(F)ccc2F)cn1Cc1ccccc1)C(C)(C)C` [Compound Ib], the IC50 in data set [1] is 22000 pM. Further, in data set [2], the AUC is 867 ng·h/mL, the half-life was 1.5 h and the clearance came out at 94 mL/min/kg.
`C[C@H](O)C(=O)N(CC[C@H](N)CF)[C@@H](c1nc(-c2cc(F)ccc2F)cn1Cc1ccccc1)C(C)(C)C` [Compound IIc]: the IC50 in data set [1] came to 900 pM. Also, in data set [2], the AUC was 1700 ng·h/mL, the half-life came to 1.83 h and the clearance amounted to 47 mL/min/kg. In the data set on KB8.5 tumor xenograft (1.25 mg/kg, q4d×3, day 11), the “percent ΔT/ΔC” value stood at 39%. Also, in the data set on KB8.5 tumor xenograft (Table 14 study, 1.25 mg/kg, i.v., KB8.5 xenograft, female nu/nu mice, p < 0.05 versus vehicle), the “ΔT/ΔC, Day 11 (%)” value was 39* %. Moreover, the body weight entry in data set [3] (2.5 mg/kg treated group) is “significant weight loss”. Also, the “Survival (alive/total)” value in data set [3] (Table 14 study, 1.25 mg/kg, i.v.) is listed as 9/9. For the same compound, the “% Max. Δ body weight, (Day)” value in data set [3] (Table 14 study, 1.25 mg/kg, i.v., D11) is −5 (D11) %. In addition, the “% Max. Δ body weight, (Day)” value in data set [3] (Table 14 study, 2.5 mg/kg, i.v., D8) is listed as −10 (D8) %. In data set [3] (Table 14 study, 2.5 mg/kg, i.v., due to 4/9 mice having 15% weight loss or more), the “Survival (alive/total)” value is “All down on Day 8”.
